Assay results from patent US10351547B2, “Somatostatin modulators and uses thereof” (priority 2016, dated 2019).
Like-named read-outs stand apart in the source and are kept apart here.

Molecular target: human SSTR2 (Homo sapiens (Human), UniProt P30874)
Assay: Human SSTR2 intracellular cAMP functional assay for agonists (HTRF)
Format: cell-based
Method: Functional Assay for SSTR2 Agonists
General overview: All five SSTR subtypes are Gi coupled G-protein coupled receptors (GPCRs) that lead to decreases in intracellular cyclic AMP (cAMP) when activated by an agonist. […] Human SSTR2 intracellular cAMP assay is described below. The human SSTR1, 3, 4 and 5 assays follow the same protocol of SSTR2.
The cells are cultured at 37° C., 5% CO2 and 95% humidity. […] The cells are incubated for 20 minutes at 37° C. […] The cells are treated with 50 μL of lysis buffer (HRTF cAMP kit, Cisbio). […] The time-resolved fluorescent signal is read with a Tecan M1000Pro multiplate reader. The intracellular cAMP concentrations are calculated by regression to a standard curve and are plotted vs. the concentration of the compounds of the invention and the EC50 of the compounds are calculated using standard methods. All data manipulations are in GraphPad Prism v6.

[1] = CHO-K1 cells stably expressing human SSTR2, NKH477-stimulated cAMP, read-out: EC50 (inhibition of cAMP activities via human SST2R)

Chain of human SSTR2 (P30874 whole entry): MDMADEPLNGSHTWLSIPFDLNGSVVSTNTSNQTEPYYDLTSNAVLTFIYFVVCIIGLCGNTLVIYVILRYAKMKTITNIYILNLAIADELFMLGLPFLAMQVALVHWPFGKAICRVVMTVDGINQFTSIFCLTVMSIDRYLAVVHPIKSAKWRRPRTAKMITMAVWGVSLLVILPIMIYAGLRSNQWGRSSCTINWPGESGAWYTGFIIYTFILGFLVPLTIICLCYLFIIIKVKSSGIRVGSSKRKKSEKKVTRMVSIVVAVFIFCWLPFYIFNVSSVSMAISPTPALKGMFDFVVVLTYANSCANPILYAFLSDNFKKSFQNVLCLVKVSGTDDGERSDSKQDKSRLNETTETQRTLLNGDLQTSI

Molecule `Cc1cc(F)cc(-c2nnc3cc(Cl)c(-c4cc(F)cc(C(N)=O)c4)cc3c2N2CCC(NCCF)CC2)c1` [1-25, 3-[7-chloro-3-(3-fluoro-5-methylphenyl)-4-{4-[(2-fluoroethyl)amino]piperidin-1-yl}cinnolin-6-yl]-5-fluorobenzamide] has an EC50 [1] of under 10 nM.

Molecule `CONC(=O)Nc1c(Cl)cncc1-c1ccc2ncc(-c3cc(C)cc(F)c3)c(N3CCC(N)CC3)c2c1` [2-186, 1-{3-[4-(4-aminopiperidin-1-yl)-3-(3-fluoro-5-methylphenyl)quinolin-6-yl]-5-chloropyridin-4-yl}-3-methoxyurea] has an EC50 [1] of under 10 nM.

With `CCNCC1CN(c2c(-c3cc(C)cc(F)c3)cnc3ccc(-c4cc(F)cc(C(N)=O)c4)cc23)C1` [2-26, 3-(4-{3-[(ethylamino)methyl]azetidin-1-yl}-3-(3-fluoro-5-methylphenyl)quinolin-6-yl)-5-fluorobenzamide] the EC50 [1] was under 10 nM.

`N#Cc1cc(F)cc(-c2ccc3ncc(-c4cc(F)cc(F)c4)c(N4CC(CN)C4)c3c2)c1O` [2-23, 3-{4-[3-(aminomethyl)azetidin-1-yl]-3-(3,5-difluorophenyl)quinolin-6-yl}-5-fluoro-2-hydroxybenzonitrile] was tested, and the EC50 was 100 to 1000 nM.

Work on `COC(=O)[C@@H]1CN(c2c(-c3cc(F)cc(F)c3)cnc3ccc(-c4cccc(C#N)c4O)cc23)CC[C@H]1N` (relative stereo) [2-170, methyl (trans)-4-amino-1-[6-(3-cyano-2-hydroxyphenyl)-3-(3,5-difluorophenyl)quinolin-4-yl]piperidine-3-carboxylate] yielded an EC50 of 100 to 1000 nM.

Work on `C#Cc1cncc(-c2ccc3ncc(-c4cc(F)cc(F)c4)c(N4CC[C@H]5OCCN[C@@H]5C4)c3c2)c1N` (relative stereo) [2-274, 3-{4-[trans-octahydro-1H-pyrido[3,4-b]morpholin-6-yl]-3-(3,5-difluorophenyl)quinolin-6-yl}-5-ethynylpyridin-4-amine] yielded an EC50 [1] of under 10 nM.

With `NC1CCN(c2c(-c3cc(F)cc(F)c3)cnc3ccc(-c4cccc(C=NO)n4)cc23)CC1` [2-200, 1-[3-(3,5-difluorophenyl)-6-{6-[(hydroxyimino)methyl]pyridin-2-yl}quinolin-4-yl]piperidin-4-amine] the EC50 [1] was under 10 nM.

`COCOc1c(C#N)cccc1-c1ccc2ncc(-c3cc(F)cc(F)c3)c(N3CC[C@H](N)[C@H](O)C3)c2c1` (relative stereo) [2-58, 3-{4-[cis-4-amino-3-hydroxypiperidin-1-yl]-3-(3,5-difluorophenyl)quinolin-6-yl}-2-(methoxymethoxy)benzonitrile] was tested, and the EC50 [1] was under 10 nM.

With `N#Cc1cncc(-c2ccc3ncc(-c4cc(F)cc(F)c4)c(N4CC[C@H]5NCCO[C@@H]5C4)c3c2)c1O` [2-254, 5-{4-[trans-octahydro-1H-pyrido[3,4-b]morpholin-6-yl]-3-(3,5-difluorophenyl)quinolin-6-yl}-4-hydroxypyridine-3-carbonitrile] the EC50 [1] was 10 to 100 nM.

`COC(=O)Nc1c(C#N)cc(F)c(F)c1-c1ccc2ncc(-c3cc(F)cc(F)c3)c(N3CCC(N)CC3)c2c1` [2-180, methyl N-{2-[4-(4-aminopiperidin-1-yl)-3-(3,5-difluorophenyl)quinolin-6-yl]-6-cyano-3,4-difluorophenyl}carbamate] gave an EC50 [1] of under 10 nM.

For `N#Cc1cccc(-c2ccc3ncc(-c4cc(F)cc(OC5COC5)c4)c(N4CCC(N)CC4)c3c2)c1O` [2-69, 3-[4-(4-aminopiperidin-1-yl)-3-[3-fluoro-5-(oxetan-3-yloxy)phenyl]quinolin-6-yl]-2-hydroxybenzonitrile], the EC50 was 10 to 100 nM.

With `N#Cc1cc(F)cc(-c2ccc3ncc(-c4cc(F)cc(Cl)c4)c(N4CC(CN)C4)c3c2)c1O` [2-21, 3-{4-[3-(aminomethyl)azetidin-1-yl]-3-(3-chloro-5-fluorophenyl)quinolin-6-yl}-5-fluoro-2-hydroxybenzonitrile] the EC50 was 10 to 100 nM.

Molecule `Cc1cc(F)cc(-c2cnc3ccc(-c4cc(F)cc(C(N)=O)c4)nc3c2N2CCC(N)CC2)c1` [3-1, 3-[8-(4-aminopiperidin-1-yl)-7-(3-fluoro-5-methylphenyl)-1,5-naphthyridin-2-yl]-5-fluorobenzamide] has an EC50 [1] of under 10 nM.

In the case of `Oc1ncccc1-c1ccc2ncc(-c3cc(F)cc(F)c3)c(N3CC[C@H]4NCCO[C@@H]4C3)c2c1` [2-248, 3-{4-[trans-octahydro-1H-pyrido[3,4-b]morpholin-6-yl]-3-(3,5-difluorophenyl)quinolin-6-yl}pyridin-2-ol], the EC50 [1] is reported as under 10 nM.

Molecule `Cc1cc(F)cc(-c2cnc3ncc(-c4cccc(C#N)c4O)cc3c2N2CCC(N)CC2)c1` [4-2, 3-[5-(4-aminopiperidin-1-yl)-6-(3-fluoro-5-methylphenyl)-1,8-naphthyridin-3-yl]-2-hydroxybenzonitrile] has an EC50 [1] of under 10 nM.

`Cc1cc(F)cc(-c2nnc3cc(Cl)c(-c4cc(F)cc(C(N)=O)c4)cc3c2N2CC[C@H](N)[C@H](F)C2)c1` (relative stereo) [1-6, 3-{4-[cis-4-amino-3-fluoropiperidin-1-yl]-7-chloro-3-(3-fluoro-5-methylphenyl)cinnolin-6-yl}-5-fluorobenzamide] was tested, and the EC50 [1] was under 10 nM.

With `CON=Cc1cc(F)cc(-c2ccc3ncc(-c4cc(C)cc(F)c4)c(N4CCC(N)CC4)c3c2)c1O` [2-116, 2-[4-(4-aminopiperidin-1-yl)-3-(3-fluoro-5-methylphenyl)quinolin-6-yl]-4-fluoro-6-[(methoxyimino)methyl]phenol] the EC50 [1] was under 10 nM.

For `COC(=O)Nc1c(C#N)cncc1-c1ccc2ncc(-c3cc(F)cc(F)c3)c(N3CCC(N)CC3)c2c1` [2-125, methyl N-{3-[4-(4-aminopiperidin-1-yl)-3-(3,5-difluorophenyl)quinolin-6-yl]-5-cyanopyridin-4-yl}carbamate], the EC50 [1] was under 10 nM.

`CCN(CCO)CC1CN(c2c(-c3cc(C)cc(F)c3)cnc3ccc(-c4cc(F)cc(C#N)c4O)cc23)C1` [2-44, 3-[4-(3-{[ethyl(2-hydroxyethyl)amino]methyl}azetidin-1-yl)-3-(3-fluoro-5-methylphenyl)quinolin-6-yl]-5-fluoro-2-hydroxybenzonitrile] showed an EC50 of 100 to 1000 nM.

`N#CCOc1c(C#N)cccc1-c1ccc2ncc(-c3cc(F)cc(F)c3)c(N3CCC(N)CC3)c2c1` [2-231, 3-[4-(4-aminopiperidin-1-yl)-3-(3,5-difluorophenyl)quinolin-6-yl]-2-(cyanomethoxy)benzonitrile] showed an EC50 [1] of under 10 nM.

Molecule `N#Cc1ccnc(-c2ccc3ncc(-c4cc(F)cc(F)c4)c(N4CC[C@H]5NCCO[C@@H]5C4)c3c2)c1F` (relative stereo) [2-261, 2-{4-[trans-octahydro-1H-pyrido[3,4-b]morpholin-6-yl]-3-(3,5-difluorophenyl)quinolin-6-yl}-3-fluoropyridine-4-carbonitrile] has an EC50 [1] of 10 to 100 nM.

For `Nc1cccnc1-c1ccc2ncc(-c3cc(F)cc(F)c3)c(N3CC[C@H]4NCCO[C@@H]4C3)c2c1` (relative stereo) [2-283, 2-{4-[trans-octahydro-1H-pyrido[3,4-b]morpholin-6-yl]-3-(3,5-difluorophenyl)quinolin-6-yl}pyridin-3-amine], the EC50 [1] was 10 to 100 nM.

Molecule `Oc1ncc(F)cc1-c1ccc2ncc(-c3cc(F)cc(F)c3)c(N3CC[C@H]4NCCO[C@@H]4C3)c2c1` (relative stereo) [2-259] has an EC50 [1] of under 10 nM.

Work on `CO/N=C/c1cc(F)cc(-c2cnc3ccc(-c4cccc(C#N)c4O)cc3c2N2CCC(N)CC2)c1` [2-70, 3-[4-(4-aminopiperidin-1-yl)-3-{3-fluoro-5-[(1E)-(methoxyimino)methyl]phenyl}quinolin-6-yl]-2-hydroxybenzonitrile] yielded an EC50 of 10 to 100 nM.

Molecule `NC(=O)c1cnc(N2CCC2)c(-c2ccc3ncc(-c4cc(F)cc(F)c4)c(N4CCC(N)CC4)c3c2)c1` [2-76, 5-[4-(4-aminopiperidin-1-yl)-3-(3,5-difluorophenyl)quinolin-6-yl]-6-(azetidin-1-yl)pyridine-3-carboxamide] has an EC50 of 100 to 1000 nM.

In the case of `NC(=O)c1cccc(-c2ccc3ncc(-c4cc(F)cc(F)c4)c(N4CCC(N)CC4)c3c2)c1OC(CO)CO` [2-67, 3-[4-(4-aminopiperidin-1-yl)-3-(3,5-difluorophenyl)quinolin-6-yl]-2-[(1,3-dihydroxypropan-2-yl)oxy]benzamide], the EC50 [1] is reported as under 10 nM.

In the case of `Cc1cc(C)cc(-c2nnc3cc(Cl)c(-c4cc(F)cc(C(N)=O)c4)cc3c2N2CCC(N)CC2)c1` [1-1, 3-[4-(4-aminopiperidin-1-yl)-7-chloro-3-(3,5-dimethylphenyl)cinnolin-6-yl]-5-fluorobenzamide], the EC50 [1] is reported as under 10 nM.

With `NC1CCN(c2c(-c3cc(F)cc(F)c3)cnc3ccc(-c4cc(F)c5[nH]c(=O)[nH]c5c4)nc23)CC1` [3-9, 6-[8-(4-aminopiperidin-1-yl)-7-(3,5-difluorophenyl)-1,5-naphthyridin-2-yl]-4-fluoro-2,3-dihydro-1H-1,3-benzodiazol-2-one] the EC50 [1] was under 10 nM.

`NC1CCN(c2c(-c3cc(F)cc(F)c3)cnc3ccc(-c4cccc(C(N)C(F)(F)F)c4)cc23)CC1` (stereo not shown) [2-132, 1-{6-[3-(1-amino-2,2,2-trifluoroethyl)phenyl]-3-(3,5-difluorophenyl)quinolin-4-yl}piperidin-4-amine] gave an EC50 of 10 to 100 nM.

`NC1CCN(c2c(-c3cc(F)cc(F)c3)cnc3ccc(-c4cncc(F)c4C=NO)cc23)CC1` [2-152, 1-[3-(3,5-difluorophenyl)-6-{5-fluoro-4-[(hydroxyimino)methyl]pyridin-3-yl}quinolin-4-yl]piperidin-4-amine] showed an EC50 [1] of under 10 nM.

For `Cc1cc(F)cc(-c2cnc3ccc(-c4cc(F)cc(C#N)c4O)cc3c2N2CC(CNC3CCOC3)C2)c1` (stereo not shown) [2-45, 5-fluoro-3-[3-(3-fluoro-5-methylphenyl)-4-(3-{[(oxolan-3-yl)amino]methyl}azetidin-1-yl)quinolin-6-yl]-2-hydroxybenzonitrile], the EC50 was 10 to 100 nM.
